Experimental findings from patent US7524869B2, “Taxanes having a C10 ester substituent” (Florida State University Research Foundation, Inc., priority 2000, dated 2009) are described below.

For this assay, the system named is HCT116. Nature of the assay: In vitro cytotoxicity measured by the cell colony formation assay. The assay is classed as cell-based. To be noted: HCT116 cells, 72 h drug incubation, colonies counted after 7 days; ID50 = drug concentration producing 50% inhibition of colony formation; read-out: IN VITRO ID 50 (nm) HCT116.

Regarding `CC(=O)O[C@@]12CO[C@@H]1C[C@H](O)[C@@]1(C)C(=O)[C@H](OC(=O)C3CC3)C3=C(C)[C@@H](OC(=O)[C@H](O)[C@@H](NC(=O)OC(C)(C)C)c4ccccc4)C[C@@](O)([C@@H](OC(=O)c4ccccc4)C12)C3(C)C` (stereo partly shown) [Compound 0882], the IC50 was less than 1 nM.

For `CCC(=O)O[C@H]1C(=O)[C@@]2(C)C([C@H](OC(=O)c3ccccc3)[C@]3(O)C[C@H](OC(=O)[C@H](O)[C@@H](NC(=O)OC(C)(C)C)c4cccnc4)C(C)=C1C3(C)C)[C@]1(OC(C)=O)CO[C@@H]1C[C@@H]2O` (stereo partly shown) [Compound 0517], the IC50 is less than 10 nM.

As for `CCCC(=O)O[C@H]1C(=O)[C@@]2(C)C([C@H](OC(=O)c3ccccc3)[C@]3(O)C[C@H](OC(=O)[C@H](O)[C@@H](NC(=O)OCC(C)C)C4CC4)C(C)=C1C3(C)C)[C@]1(OC(C)=O)CO[C@@H]1C[C@@H]2O` (stereo partly shown) [Compound 4808], the IC50 is less than 10 nM.

Turning to `CC(=O)O[C@@]12CO[C@@H]1C[C@H](O)[C@@]1(C)C(=O)[C@H](OC(=O)C3CC3)C3=C(C)[C@@H](OC(=O)[C@H](O)[C@@H](NC(=O)c4ccccc4)c4ccncc4)C[C@@](O)([C@@H](OC(=O)c4ccccc4)C12)C3(C)C` (stereo partly shown) [Compound 2855], the IC50 is less than 1 nM.

Regarding `CCCC(=O)N[C@@H](c1ccco1)[C@@H](O)C(=O)O[C@H]1C[C@@]2(O)[C@@H](OC(=O)c3ccccc3)C3[C@](C)(C(=O)[C@H](OC(=O)C4CC4)C(=C1C)C2(C)C)[C@@H](O)C[C@H]1OC[C@@]31OC(C)=O` (stereo partly shown) [Compound 4062], the IC50 is less than 1 nM.

Take `C/C=C/C(=O)O[C@H]1C(=O)[C@@]2(C)C([C@H](OC(=O)c3ccccc3)[C@]3(O)C[C@H](OC(=O)[C@H](O)[C@@H](NC(=O)OC(C)(C)C)c4ccco4)C(C)=C1C3(C)C)[C@]1(OC(C)=O)CO[C@@H]1C[C@@H]2O` (stereo partly shown) [Compound 2379]: the IC50 was less than 1 nM.

In the case of `CCCC(=O)O[C@H]1C(=O)[C@@]2(C)C([C@H](OC(=O)c3ccccc3)[C@]3(O)C[C@H](OC(=O)[C@H](O)[C@@H](NC(=O)c4ccccc4)c4ccco4)C(C)=C1C3(C)C)[C@]1(OC(C)=O)CO[C@@H]1C[C@@H]2O` (stereo partly shown) [Compound 3204], the IC50 is less than 1 nM.

Consider `CC(=O)O[C@@]12CO[C@@H]1C[C@H](O)[C@@]1(C)C(=O)[C@H](OC(=O)C3CC3)C3=C(C)[C@@H](OC(=O)[C@H](O)[C@H](C=C(C)C)NC(=O)c4ccccc4)C[C@@](O)([C@@H](OC(=O)c4ccccc4)C12)C3(C)C` (stereo partly shown) [Compound 0890], for which the IC50 was less than 1 nM.

Consider `CC(=O)O[C@@]12CO[C@@H]1C[C@H](O)[C@@]1(C)C(=O)[C@H](OC(=O)C3CC3)C3=C(C)[C@@H](OC(=O)[C@H](O)[C@@H](NC(=O)OC(C)C)c4ccco4)C[C@@](O)([C@@H](OC(=O)c4ccccc4)C12)C3(C)C` (stereo partly shown) [Compound 3853], for which the IC50 is less than 1 nM.

On to `CCCC(=O)O[C@H]1C(=O)[C@@]2(C)C([C@H](OC(=O)c3ccccc3)[C@]3(O)C[C@H](OC(=O)[C@H](O)[C@@H](NC(=O)OC(C)(C)C)c4cccnc4)C(C)=C1C3(C)C)[C@]1(OC(C)=O)CO[C@@H]1C[C@@H]2O` (stereo partly shown) [Compound 0966], for which the IC50 is less than 10 nM.

With `CC(=O)O[C@@]12CO[C@@H]1C[C@H](O)[C@@]1(C)C(=O)[C@H](OC(=O)C3CC3)C3=C(C)[C@@H](OC(=O)[C@H](O)[C@@H](NC(=O)OCC(C)C)c4cccs4)C[C@@](O)([C@@H](OC(=O)c4ccccc4)C12)C3(C)C` (stereo partly shown) [Compound 3129], the IC50 was less than 10 nM.

Take `CC(=O)O[C@@]12CO[C@@H]1C[C@H](O)[C@@]1(C)C(=O)[C@H](OC(=O)C3CC3)C3=C(C)[C@@H](OC(=O)[C@H](O)[C@@H](NC(=O)c4cccs4)c4cccs4)C[C@@](O)([C@@H](OC(=O)c4ccccc4)C12)C3(C)C` (stereo partly shown) [Compound 3453]: the IC50 was less than 1 nM.

Consider `CC(=O)OC12COC1CC(O)C1(C)C(=O)C(OC(=O)c3ccco3)C3=C(C)C(OC(=O)C(O)C(NC(=O)OC(C)(C)C)c4ccsc4)CC(O)(C(OC(=O)c4ccccc4)C21)C3(C)C` (stereo not shown) [Compound 2173], for which the IC50 was less than 1 nM.

As for `C/C=C/C(=O)N[C@@H](c1ccoc1)[C@@H](O)C(=O)O[C@H]1C[C@@]2(O)[C@@H](OC(=O)c3ccccc3)C3[C@](C)(C(=O)[C@H](OC(=O)CCC)C(=C1C)C2(C)C)[C@@H](O)C[C@H]1OC[C@@]31OC(C)=O` (stereo partly shown) [Compound 4919], the IC50 was less than 1 nM.

For `C/C=C/C(=O)N[C@@H](c1ccco1)[C@@H](O)C(=O)O[C@H]1C[C@@]2(O)[C@@H](OC(=O)c3ccccc3)C3[C@](C)(C(=O)[C@H](OC(=O)C4CC4)C(=C1C)C2(C)C)[C@@H](O)C[C@H]1OC[C@@]31OC(C)=O` (stereo partly shown) [Compound 3971], the IC50 was less than 1 nM.

With `CCC(=O)O[C@H]1C(=O)[C@@]2(C)C([C@H](OC(=O)c3ccccc3)[C@]3(O)C[C@H](OC(=O)[C@H](O)[C@@H](NC(=O)c4ccccc4)C4CC4)C(C)=C1C3(C)C)[C@]1(OC(C)=O)CO[C@@H]1C[C@@H]2O` (stereo partly shown) [Compound 0706], the IC50 is less than 1 nM.

Turning to `C/C=C/C(=O)O[C@H]1C(=O)[C@@]2(C)C([C@H](OC(=O)c3ccccc3)[C@]3(O)C[C@H](OC(=O)[C@H](O)[C@@H](NC(=O)OC(C)(C)C)c4ccncc4)C(C)=C1C3(C)C)[C@]1(OC(C)=O)CO[C@@H]1C[C@@H]2O` (stereo partly shown) [Compound 2366], the IC50 is less than 1 nM.

Consider `CC(=O)OC12COC1CC(O)C1(C)C(=O)C(OC(=O)C(C)C)C3=C(C)C(OC(=O)C(O)C(C=C(C)C)NC(=O)OC(C)(C)C)CC(O)(C(OC(=O)c4ccccc4)C21)C3(C)C` (stereo not shown) [Compound 2226], for which the IC50 was less than 1 nM.

With `CCC(=O)O[C@H]1C(=O)[C@@]2(C)C([C@H](OC(=O)c3ccccc3)[C@]3(O)C[C@H](OC(=O)[C@H](O)[C@@H](NC(=O)OC(C)(C)CC)c4ccco4)C(C)=C1C3(C)C)[C@]1(OC(C)=O)CO[C@@H]1C[C@@H]2O` (stereo partly shown) [Compound 6522], the IC50 is less than 1 nM.

`C/C=C/C(=O)N[C@@H](c1ccoc1)[C@@H](O)C(=O)O[C@H]1C[C@@]2(O)[C@@H](OC(=O)c3ccccc3)C3[C@](C)(C(=O)[C@H](OC(=O)CC)C(=C1C)C2(C)C)[C@@H](O)C[C@H]1OC[C@@]31OC(C)=O` (stereo partly shown) [Compound 4888]: the IC50 is less than 1 nM.

For `CCC(=O)O[C@H]1C(=O)[C@@]2(C)C([C@H](OC(=O)c3ccccc3)[C@]3(O)C[C@H](OC(=O)[C@H](O)[C@@H](NC(=O)OC(C)(C)C)c4ccco4)C(C)=C1C3(C)C)[C@]1(OC(C)=O)CO[C@@H]1C[C@@H]2O` (stereo partly shown) [Compound 0536], the IC50 is less than 1 nM.

As for `CCCC(=O)OC1C(=O)C2(C)C(O)CC3OCC3(OC(C)=O)C2C(OC(=O)c2ccccc2)C2(O)CC(OC(=O)C(O)C(NC(=O)OC(C)(C)C)C(C)C)C(C)=C1C2(C)C` (stereo not shown) [Compound 1031], the IC50 was less than 10 nM.

`CC(=O)OC12COC1CC(O)C1(C)C(=O)C(OC(=O)c3ccco3)C3=C(C)C(OC(=O)C(O)C(NC(=O)OC(C)(C)C)C(C)C)CC(O)(C(OC(=O)c4ccccc4)C21)C3(C)C` (stereo not shown) [Compound 2181]: the IC50 was less than 10 nM.

For `CCC(=O)O[C@H]1C(=O)[C@@]2(C)C([C@H](OC(=O)c3ccccc3)[C@]3(O)C[C@H](OC(=O)[C@H](O)[C@@H](NC(=O)OC(C)(C)C)c4ccsc4)C(C)=C1C3(C)C)[C@]1(OC(C)=O)CO[C@@H]1C[C@@H]2O` (stereo partly shown) [Compound 0562], the IC50 was less than 1 nM.

As for `CC(=O)OC12COC1CC(O)C1(C)C(=O)C(OC(=O)c3cccs3)C3=C(C)C(OC(=O)C(O)C(NC(=O)OC(C)(C)C)C(C)C)CC(O)(C(OC(=O)c4ccccc4)C21)C3(C)C` (stereo not shown) [Compound 1964], the IC50 was less than 10 nM.

On to `CC(=O)O[C@@]12CO[C@@H]1C[C@H](O)[C@@]1(C)C(=O)[C@H](OC(=O)C(C)C)C3=C(C)[C@@H](OC(=O)[C@H](O)[C@@H](NC(=O)OC(C)(C)C)C4CCC4)C[C@@](O)([C@@H](OC(=O)c4ccccc4)C12)C3(C)C` (stereo partly shown) [Compound 2319], for which the IC50 was less than 10 nM.

Turning to `CCC(=O)O[C@H]1C(=O)[C@@]2(C)C([C@H](OC(=O)c3ccccc3)[C@]3(O)C[C@H](OC(=O)[C@H](O)[C@@H](NC(=O)c4ccccc4)c4ccsc4)C(C)=C1C3(C)C)[C@]1(OC(C)=O)CO[C@@H]1C[C@@H]2O` (stereo partly shown) [Compound 0691], the IC50 is less than 1 nM.

For `C/C=C/C(=O)O[C@H]1C(=O)[C@@]2(C)C([C@H](OC(=O)c3ccccc3)[C@]3(O)C[C@H](OC(=O)[C@H](O)[C@@H](NC(=O)OC(C)(C)C)c4ccccc4)C(C)=C1C3(C)C)[C@]1(OC(C)=O)CO[C@@H]1C[C@@H]2O` (stereo partly shown) [Compound 2442], the IC50 was less than 1 nM.

Regarding `C/C=C/C(=O)N[C@@H](c1ccco1)[C@@H](O)C(=O)O[C@H]1C[C@@]2(O)[C@@H](OC(=O)c3ccccc3)C3[C@](C)(C(=O)[C@H](OC(=O)CCC)C(=C1C)C2(C)C)[C@@H](O)C[C@H]1OC[C@@]31OC(C)=O` (stereo partly shown) [Compound 3994], the IC50 is less than 1 nM.

`CCC(=O)O[C@H]1C(=O)[C@@]2(C)C([C@H](OC(=O)c3ccccc3)[C@]3(O)C[C@H](OC(=O)[C@H](O)[C@@H](NC(=O)OC(C)(C)C)C4CCC4)C(C)=C1C3(C)C)[C@]1(OC(C)=O)CO[C@@H]1C[C@@H]2O` (stereo partly shown) [Compound 0596]: the IC50 was less than 10 nM.

For `CC(=O)O[C@@]12CO[C@@H]1C[C@H](O)[C@@]1(C)C(=O)[C@H](OC(=O)C(C)C)C3=C(C)[C@@H](OC(=O)[C@H](O)[C@@H](NC(=O)OC(C)(C)C)c4ccoc4)C[C@@](O)([C@@H](OC(=O)c4ccccc4)C12)C3(C)C` (stereo partly shown) [Compound 2273], the IC50 was less than 1 nM.

In the case of `CC(=O)O[C@@]12CO[C@@H]1C[C@H](O)[C@@]1(C)C(=O)[C@H](OC(=O)C3CC3)C3=C(C)[C@@H](OC(=O)[C@H](O)[C@@H](NC(=O)OCC(C)C)c4ccsc4)C[C@@](O)([C@@H](OC(=O)c4ccccc4)C12)C3(C)C` (stereo partly shown) [Compound 5011], the IC50 is less than 10 nM.

For `CCCC(=O)N[C@@H](c1ccco1)[C@@H](O)C(=O)O[C@H]1C[C@@]2(O)[C@@H](OC(=O)c3ccccc3)C3[C@](C)(C(=O)[C@H](OC(=O)CCC)C(=C1C)C2(C)C)[C@@H](O)C[C@H]1OC[C@@]31OC(C)=O` (stereo partly shown) [Compound 3222], the IC50 is less than 1 nM.

Regarding `CCC(=O)O[C@H]1C(=O)[C@@]2(C)C([C@H](OC(=O)c3ccccc3)[C@]3(O)C[C@H](OC(=O)[C@H](O)[C@@H](NC(=O)OCC(C)C)c4cccs4)C(C)=C1C3(C)C)[C@]1(OC(C)=O)CO[C@@H]1C[C@@H]2O` (stereo partly shown) [Compound 3163], the IC50 is less than 1 nM.
